This note sets out measurements from paper PMC6152416, “Pharmacological and Toxicological Screening of Novel Benzimidazole-Morpholine Derivatives as Dual-Acting Inhibitors” (Molecules : A Journal of Synthetic Chemistry and Natural …, 2017).

One data set deals with T1, COX-1 (Ovis aries, UniProt P05979).
T1 construct: purchased BioVision (Milpitas, CA, USA) K548-100
In words: Fluorimetric COX-1 inhibition screening kit (BioVision). It is filed as biochemical. Particulars: for COX-1 inhibition at the initial concentrations: 10^−3 M and 10^−4 M; for inhibition at 10 µM: 10^−5 M; for inhibition at 1 µM: 10^−6 M; for inhibition at 0.1 µM: 10^−7 M; for inhibition at 0.01 µM: 10^−8 M; for inhibition at 0.001 µM: 10^−9 M. The procedure: Inhibitory potency of the compounds on COX-1 and COX-2 enzymes was determined by using fluorimetric COX-1 and COX-2 inhibition screening kits from BioVision (Milpitas, CA, USA). The experimental protocol as described in the guides provided by the supplier was followed. All of the pipetting were performed using a robotized system to increase speed, accuracy and precision. Fluorescence intensities of the samples were kinetically measured at 25 °C for 5–10 min by monitoring emissions at 587 nm after excitation at 535 nm. Two appropriate points (T1 and T2) in the linear range of the plot were chosen and the corresponding fluorescence values (RFU1 and RFU2) were obtained. The slope for all samples including Enzyme Control (EC) was calculated by dividing the net ΔRFU (RFU2 − RFU1) values by the time ΔT (T2 − T1). Percentage of relative inhibition was calculated by using the following equation:% Relative inhibition = (Slope of EC − Slope of S/Slope of EC) × 100 where S is the term representing the tested compound [51, 52]. […] The IC50 values were calculated using the plots of the enzyme activity against concentrations by applying regression analyses.

In the next data set the target is T2, human recombinant MAO-A (Homo sapiens, UniProt P21397).
T2 sequence (P21397 1-527): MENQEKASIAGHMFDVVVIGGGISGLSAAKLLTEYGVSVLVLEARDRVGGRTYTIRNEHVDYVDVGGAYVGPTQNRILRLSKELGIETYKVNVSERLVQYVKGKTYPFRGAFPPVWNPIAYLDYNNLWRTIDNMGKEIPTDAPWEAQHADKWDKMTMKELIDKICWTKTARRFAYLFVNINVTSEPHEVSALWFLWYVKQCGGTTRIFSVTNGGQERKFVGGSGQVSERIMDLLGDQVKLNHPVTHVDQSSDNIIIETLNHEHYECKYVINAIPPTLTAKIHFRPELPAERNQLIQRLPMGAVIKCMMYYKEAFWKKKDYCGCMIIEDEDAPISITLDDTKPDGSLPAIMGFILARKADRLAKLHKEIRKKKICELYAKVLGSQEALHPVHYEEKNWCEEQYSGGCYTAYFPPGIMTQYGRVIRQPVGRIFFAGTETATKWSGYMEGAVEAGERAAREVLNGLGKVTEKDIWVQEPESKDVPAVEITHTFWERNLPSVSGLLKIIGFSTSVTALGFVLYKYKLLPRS
In words: MAO inhibition assay (kynuramine, fluorimetric). The class given is biochemical. The procedure: (§1) Enzyme activity assays were performed according to the procedure reported by Matsumoto et al. with slight modifications. In order to prevent the destructive effect of light on MAO enzymes, the assays were performed in 96-well black plates. Phosphate buffer solution (0.1 M, pH = 7.4) was used for preparation of stock solutions (5 mg/mL) of both human recombinant MAO-A and MAO-B enzymes. […] The addition of the test compound solution was followed by addition of either MAO-A or MAO-B enzyme (50 μL/well) solutions. After 10 min of incubation at 37 °C, kynuramine (50 μL/well) was added and enzyme-substrate reaction was initiated. The plate was incubated for 20 min at 37 °C and then reaction was terminated by addition of 2 N NaOH (75 μL/well). The fluorimetric reads from the top was performed at 310 nm excitation and 380 nm emission wavelengths.

The target in another data set is T3, human recombinant MAO-B (Homo sapiens, UniProt P27338).
T3 sequence (P27338 1-520): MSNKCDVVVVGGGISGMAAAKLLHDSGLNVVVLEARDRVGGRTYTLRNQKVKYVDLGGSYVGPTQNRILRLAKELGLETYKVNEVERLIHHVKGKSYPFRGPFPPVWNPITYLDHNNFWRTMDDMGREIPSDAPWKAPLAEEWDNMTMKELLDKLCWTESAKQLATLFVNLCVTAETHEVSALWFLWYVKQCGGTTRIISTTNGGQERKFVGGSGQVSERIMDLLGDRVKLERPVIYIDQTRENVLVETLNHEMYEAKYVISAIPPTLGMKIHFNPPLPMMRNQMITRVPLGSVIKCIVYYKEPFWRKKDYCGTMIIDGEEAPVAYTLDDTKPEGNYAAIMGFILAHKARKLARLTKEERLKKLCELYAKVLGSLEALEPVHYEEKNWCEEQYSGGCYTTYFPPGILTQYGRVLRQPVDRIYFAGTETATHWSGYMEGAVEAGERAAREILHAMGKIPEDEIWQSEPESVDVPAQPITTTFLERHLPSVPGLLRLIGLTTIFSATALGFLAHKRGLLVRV
The data set is described as follows: MAO inhibition assay (kynuramine, fluorimetric). It is filed as biochemical. The procedure:
as §1

A short description of the next data set: MTT cytotoxicity assay. The class given is cell-based, mouse. As to conditions: mouse, NIH/3T3 mouse embryonic fibroblast cells, read-out: Cytotoxicity NIH3T3 Cells IC50. The procedure: (§2) Cytotoxicity was tested using NIH/3T3 mouse embryonic fibroblast cell line (ATCC® CRL-1658™, London, UK). NIH/3T3 cells were incubated according to the supplier’s recommendations. NIH/3T3 cells were seeded as 1 × 10^4 cells into each well of 96-well plates. MTT assay was performed as previously described. The compounds were tested between 1 mM and 0.000316 mM concentrations (1.0, 0.316, 0.10, 0.0316, 0.01, 0.00316, 0.001, 0.000316 mM). The IC50 values were determined by plotting a dose-response curve of inhibition % versus tested concentrations of the compound [62].

Data set [1] has as its system NIH/3T3 mouse embryonic fibroblast cell line. The data set is described as follows: MTT cytotoxicity assay. Particulars: NIH/3T3. The class given is cell-based. Here is the method: as §2

T1 sequence (P05979 25-600): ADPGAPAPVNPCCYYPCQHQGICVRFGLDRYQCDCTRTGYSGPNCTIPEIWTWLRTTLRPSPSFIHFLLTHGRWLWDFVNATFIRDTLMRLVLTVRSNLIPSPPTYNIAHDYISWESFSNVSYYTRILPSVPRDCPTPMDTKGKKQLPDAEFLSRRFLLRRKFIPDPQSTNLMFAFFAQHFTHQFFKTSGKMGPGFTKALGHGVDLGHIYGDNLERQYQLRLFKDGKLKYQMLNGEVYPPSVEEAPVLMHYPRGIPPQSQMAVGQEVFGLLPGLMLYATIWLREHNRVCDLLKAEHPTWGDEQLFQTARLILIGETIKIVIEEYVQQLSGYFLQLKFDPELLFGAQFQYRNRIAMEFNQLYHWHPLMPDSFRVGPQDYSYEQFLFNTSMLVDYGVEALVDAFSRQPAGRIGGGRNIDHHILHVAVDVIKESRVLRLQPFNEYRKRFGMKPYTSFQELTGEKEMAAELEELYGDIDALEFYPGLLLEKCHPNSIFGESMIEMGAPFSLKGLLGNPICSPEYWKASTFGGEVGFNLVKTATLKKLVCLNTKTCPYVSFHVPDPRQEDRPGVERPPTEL

In the case of `CC(C)c1ccc(-c2nc3ccccc3n2CCN2CCOCC2)cc1` [Compound 2e, 2-(4-Isopropylphenyl)-1-[2-(morpholin-4-yl)ethyl]-1H-benzimidazole], the “COX-1 Inhibition (%)” value on COX-1 (10^-3 M) was 26.47%; at COX-1 (10^-4 M) it was 19.88%. Besides, the “MAO-A Inhibition (%)” value was 24.29% on human recombinant MAO-A (10^-3 M) and 17.31% on human recombinant MAO-A (10^-4 M). Further, the entries for the “MAO-B Inhibition (%)” value on human recombinant MAO-B (10^-3 M) and at human recombinant MAO-B (10^-4 M) were 35.47% and 26.65%, respectively.
For the compound `CCOc1ccc(-c2nc3ccccc3n2CCN2CCOCC2)cc1` [Compound 2j, 2-(4-Ethoxyphenyl)-1-[2-(morpholin-4-yl)ethyl]-1H-benzimidazole], in the data set “MTT cytotoxicity assay”, the concentration for half-maximal inhibition (IC50) is 316 µM. For the same compound, in data set [1], the cytotoxicity in words entry was “non-cytotoxic”. Also, on COX-1, the concentration for half-maximal inhibition (IC50) is 14.2 µM, the “COX-1 inhibition at the initial concentrations” value is recorded as “more than 50%”, the inhibition at 10 µM came to 51.4 ± 1.15% and testing at 1 µM gave an inhibition of 44.5 ± 1.07%. Moreover, on COX-1, testing at 0.1 µM gave an inhibition of 37.7 ± 0.76%, 0.01 µM produced 27.5 ± 0.82% inhibition and testing at 0.001 µM gave an inhibition of 23.4 ± 0.61%. In addition, the “COX-1 Inhibition (%)” value on COX-1 (10^-3 M) is reported as 85.07%. Also, at COX-1 (10^-4 M), the “COX-1 Inhibition (%)” value is listed as 88.68%. Moreover, the “MAO-A Inhibition (%)” value at human recombinant MAO-A (10^-3 M) came to 28.47%. For the same compound, the “MAO-A Inhibition (%)” value at human recombinant MAO-A (10^-4 M) was found to be 19.42%. Besides, the “MAO-B Inhibition (%)” value on human recombinant MAO-B (10^-3 M) is given as 41.73%. For the same compound, at human recombinant MAO-B (10^-4 M), the “MAO-B Inhibition (%)” value was 32.44%.
As for `Clc1ccc(-c2nc3ccccc3n2CCN2CCOCC2)cc1` [Compound 2c, 2-(4-Chlorophenyl)-1-[2-(morpholin-4-yl)ethyl]-1H-benzimidazole], the “COX-1 Inhibition (%)” value on COX-1 (10^-3 M) came out at 24.55%; on COX-1 (10^-4 M), 22.15%. The “MAO-A Inhibition (%)” value on human recombinant MAO-A (10^-3 M) is 31.58%; at human recombinant MAO-A (10^-4 M), 26.17%. For the same compound, the “MAO-B Inhibition (%)” value was determined as 41.12% at human recombinant MAO-B (10^-3 M) and 33.54% on human recombinant MAO-B (10^-4 M).
For the compound `COc1ccc(-c2nc3ccccc3n2CCN2CCOCC2)cc1` [Compound 2b, 2-(4-Methoxyphenyl)-1-[2-(morpholin-4-yl)ethyl]-1H-benzimidazole], the half-inhibitory concentration (IC50) in “MTT cytotoxicity assay” worked out at 316 µM. In data set [1], the cytotoxicity in words result is “non-cytotoxic”. For the same compound, on COX-1, the concentration for half-maximal inhibition (IC50) worked out at 8.1 µM, the “COX-1 inhibition at the initial concentrations” value was “more than 50%”, the inhibition at 10 µM came to 59.4 ± 1.24% and the inhibition at 1 µM came out at 42.8 ± 1.02%. Moreover, on COX-1, the inhibition at 0.1 µM stood at 37.1 ± 0.92%, at 0.01 µM the inhibition was 26.8 ± 0.87% and at 0.001 µM the inhibition was 19.6 ± 0.76%. Besides, the “COX-1 Inhibition (%)” value at COX-1 (10^-3 M) was 90.12%. Besides, the “COX-1 Inhibition (%)” value at COX-1 (10^-4 M) was 87.62%. For the same compound, on human recombinant MAO-A (10^-3 M), the “MAO-A Inhibition (%)” value came out at 29.44%. Besides, the “MAO-A Inhibition (%)” value at human recombinant MAO-A (10^-4 M) stood at 24.61%. For the same compound, the “MAO-B Inhibition (%)” value at human recombinant MAO-B (10^-3 M) is 32.44%. For the same compound, the “MAO-B Inhibition (%)” value at human recombinant MAO-B (10^-4 M) was 31.75%.
For `FC(F)(F)Oc1ccc(-c2nc3ccccc3n2CCN2CCOCC2)cc1` [Compound 2m, 2-(4-Trifluoromethoxyphenyl)-1-[2-(morpholin-4-yl)ethyl]-1H-benzimidazole], the half-maximal inhibitory concentration (IC50) in “MTT cytotoxicity assay” turned out to be 100 µM. For the same compound, the cytotoxicity in words result in data set [1] is “non-cytotoxic”. In addition, on COX-1, the midpoint of inhibition, the IC50, lay at 21.9 µM; the “COX-1 inhibition at the initial concentrations” value is on record as “more than 50%”; the inhibition at 10 µM was found to be 47.4 ± 1.16%; the inhibition at 1 µM is 42 ± 0.88%. Further, on COX-1, the inhibition at 0.1 µM turned out to be 36.6 ± 0.92%, testing at 0.01 µM gave an inhibition of 26.2 ± 0.79% and the inhibition at 0.001 µM was found to be 20 ± 0.62%. For the same compound, the “COX-1 Inhibition (%)” value at COX-1 (10^-3 M) was determined as 79.15%. In addition, at COX-1 (10^-4 M), the “COX-1 Inhibition (%)” value worked out at 78.61%. In addition, the “MAO-A Inhibition (%)” value at human recombinant MAO-A (10^-3 M) was determined as 34.29%. For the same compound, on human recombinant MAO-A (10^-4 M), the “MAO-A Inhibition (%)” value was determined as 16.39%. Besides, at human recombinant MAO-B (10^-3 M), the “MAO-B Inhibition (%)” value amounted to 25.84%. Also, the “MAO-B Inhibition (%)” value at human recombinant MAO-B (10^-4 M) amounted to 12.43%.
